How the values were obtained:
[1] = primary amine group of sphingosine; cited from earlier work
[2] = acute toxicity in animals when administered in organic solvents or in aqueous vehicles; type: in vivo; conditions: similar doses, may include intravascular hemolysis and lung embolism
Description: (§1) The presently recommended dose of safingol, administered in the formulation described by the present invention, is 120 mg per square meter body surface or about 200 mg for a typical adult patient. A sterile emulsion is first diluted to a convenient drug concentration (typically about 0.5 mg/ml) using 5% dextrose for injection. A standard chemotherapeutic agent, such as cisplatin or doxorubicin, is co-infused with safingol over approximately a one hour time period. This therapy may be safety repeated every 14 to 21 days. […] Such toxicity may include intravascular hemolysis and lung embolism.

[3] = acute toxicity on administration in the emulsion (infusion); type: in vivo; conditions: 120 mg per square meter, diluted to about 0.5 mg/ml in 5% dextrose, approximately one hour co-infusion with cisplatin or doxorubicin
Description: as §1

protein kinase C = conditions: in vitro and in vivo; cited from earlier work

| Compound | pKa [1] | acute toxicity, in organic solvents or in aqueous vehicles [2] | acute toxicity, administered in the emulsion of the invention [3] | inhibition of protein kinase C (protein kinase C) |
| --- | --- | --- | --- | --- |
| CCCCCCCCCCCCC/C=C/[C@@H](O)[C@@H](N)CO [Sphingosine, 4-sphingenine] | ~ 6.5 |  |  |  |
| CCCCCCCCCCCCCCC[C@H](O)[C@@H](N)CO [safingol, (2S,3S)-2-amino-1,3-octadecanediol] |  | unacceptable acute toxicity is observed | no acute toxicity | potent inhibitors of protein kinase C, both in vitro and in vivo |
